From patent US20230158151A1 (NURIX THERAPEUTICS, INC., priority 2021, published 2023)

Target: T1, ITK (Mus musculus, UniProt Q03526)
T1 construct: administered to mice orally; from tissue; host or cells: mouse splenocytes (spleen) after oral dosing
T1 sequence (Q03526 1-625): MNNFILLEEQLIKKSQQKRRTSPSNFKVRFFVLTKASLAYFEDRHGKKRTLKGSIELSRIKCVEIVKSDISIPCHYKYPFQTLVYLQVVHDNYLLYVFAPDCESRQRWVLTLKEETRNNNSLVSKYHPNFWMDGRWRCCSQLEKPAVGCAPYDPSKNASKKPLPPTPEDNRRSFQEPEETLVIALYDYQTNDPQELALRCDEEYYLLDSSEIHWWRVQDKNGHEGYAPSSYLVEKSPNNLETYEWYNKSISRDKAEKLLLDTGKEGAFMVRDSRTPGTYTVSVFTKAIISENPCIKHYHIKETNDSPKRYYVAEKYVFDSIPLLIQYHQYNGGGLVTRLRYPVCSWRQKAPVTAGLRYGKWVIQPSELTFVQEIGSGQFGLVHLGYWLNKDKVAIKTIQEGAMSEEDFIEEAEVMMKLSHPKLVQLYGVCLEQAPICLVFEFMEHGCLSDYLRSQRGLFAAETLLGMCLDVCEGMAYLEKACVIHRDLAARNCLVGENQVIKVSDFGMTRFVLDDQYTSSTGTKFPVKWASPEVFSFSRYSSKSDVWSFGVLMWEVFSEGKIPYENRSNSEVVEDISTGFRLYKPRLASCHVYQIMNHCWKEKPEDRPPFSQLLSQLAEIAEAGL
Test: Western Assay for ITK Degradation in Mouse Splenocytes after oral administration
Format: in vivo
Settings: % ITK remaining in mouse splenocytes, 90 mpk PO, 6 h
Experimental: Compounds 30 and 31 were administered to mice orally. After 6 hours, splenocytes cells were harvested. ITK was evaluated by Western blotting. Media was removed and cell pellets were lysed in 100 μL lysis buffer (RIPA buffer (Fisher, PI89901), cOmplete Mini EDTA-free protease inhibitor (Sigma 11836170001), Protease Inhibitor Cocktail (Sigma, P2714), Phosphatase Inhibitor Cocktail 2 and 3 (Sigma, P5726 and P0044), Benzonase (Sigma, E1014)). Cells were lysed overnight at −20° C. Following thaw, cells were centrifuged for 10 min at 13000 rpm, then transferred to new tube. Protein levels were determined by BCA Assay performed according to manufacturer's protocol (EMD Millipore, cat. no. 71285-3). Samples were combined with (4×) LDS Sample Buffer and (10×) Reducing Agent and H2O to equally load 20 μg protein per lane of a 26-well NuPAGE 4-12% Bis-Tris protein gel (1.0 mm, Thermo cat. no. NP0326). Samples were separated by running gels at constant 150 V in NuPAGE MES SDS Running Buffer. Following electrophoresis, proteins were transferred to nitrocellulose membranes using an iBlot Gel Transfer Device and iBlot Gel Transfer Stacks (Thermo cat. no. IB21001 and IB301001) and transfer method P3 (20V for 7 min). Membranes were blocked for 1 hr in 5% milk solution (TBS (0.2% Tween-20)). Following blocking, membranes were incubated with primary antibody (1:1000 CST ITK (2F12) #2380) overnight at 4° C. with gentle shaking. Blots were washed 2× in TBS (0.2% Tween-20), 30 min per wash. Following washes, blots were incubated in secondary HRP-conjugated antibody (Promega anti-Mouse IgG (H+L) HRP cat. no. W4021), 1:5000 in 5% milk solution (TBS (0.2% Tween-20)), for 1 hr at room temperature with gentle shaking. Blots were washed 2× in TBS (0.2% Tween-20), 30 min per wash. Blots were incubated with 1:1 mix of ECL reagents 1 & 2 (Amersham ECL Western Blotting Detection Reagent, cat. no. RPN2106) for 2 min at room temperature. Bands were visualized using a Protein Simple imager. Blots were then re-probed with a combination of anti-actin antibody (Sigma Monoclonal Mouse Anti-β-Actin (clone AC-15), cat. no. A5441) and secondary HRP-conjugated antibody (Promega anti-Mouse IgG (H+L) HRP, cat. no. W4021) and similar steps were taken for incubation, wash, detection and visualization steps as above. The data was analyzed using Alpha View software. The densitometric reading for each sample band was normalized to that of the corresponding actin band per lane. Approximate % ITK remaining per sample was calculated as follows: […]
Once % ITK remaining has been calculated for each sample, groups are averaged together to show an means % ITK normalized to actin and relative to control.
Compounds 30 and 29 were administered to mice orally. After 6 hours or 24 hours, splenocytes cells were harvested. ITK was evaluated by Western blotting. Plasma concentrations were determined by LC/MS/MS. Plasma samples were protein precipitated by addition of 100 μl of acetonitrile containing 50 ng/ml of internal standard. The resulting mixture was vortexed and centrifuged at 4000 RPM for 5 minutes. An aliquot of the resultant supernatant (75 μl) was added to 75 μl of 0.1% formic acid in water to constitute the final sample for injection. Samples were injected on a Shimadzu Exion LC Binary Gradient AD Pump HLPC system connected to a Sciex QTRAP 6500+ mass spectrometer. Five μl of sample was injected onto a Waters Acquity UPLC BEH C18 column 130A (2.1×30 mm, […]) at 40° C. utilizing a flow rate of 700 μl/minute. Mobile Phase A was 0.1% formic acid in water and mobile phase B was 0.1% formic acid in acetonitrile. A linear gradient of 15-95% B over 1.0 minute was used. The mass spectrometer was operated in positive ion electrospray mode with multiple reaction monitoring for maximum sensitivity. Sciex Analyst software (version 1.6.3) was used for LC/MS/MS instrument control and acquisition. […]

C[C@@H](C(=O)N(C)c1ccc2cc(-c3n[nH]c4c3CCC(C)(C)C4)[nH]c2c1)N1CCN(CC2CCN(c3ccc(C4CCC(=O)NC4=O)cn3)CC2)CC1 (stereo partly drawn) [Compound 32, (2S)—N-(2-(6,6-dimethyl-4,5,6,7-tetrahydro-1H-indazol-3-yl)-1H-indol-6-yl)-2-(4-((1-(5-(2,6-dioxopiperidin-3-yl)pyridin-2-yl)piperidin-4-yl)methyl)piperazin-1-yl)-N-methylpropanamide]
ITK (%) 90 mpk PO, 6 h: 11%

CC1(C)CCc2c(-c3cc4ccc(C(=O)N5CCN(CC6CCN(c7ccc(C8CCC(=O)NC8=O)cn7)CC6)CC5)cc4[nH]3)n[nH]c2C1 (centres unmarked) [Compound 26, 3-(6-(4-((4-(2-(6,6-dimethyl-4,5,6,7-tetrahydro-1H-indazol-3-yl)-1H-indole-6-carbonyl)piperazin-1-yl)methyl)piperidin-1-yl)pyridin-3-yl)piperidine-2,6-dione]
ITK (%) 90 mpk PO, 6 h: 11%
